Reference: patent US20110124647A1, “INSECTICIDAL DERIVATIVES OF SUBSTITUTED BENZYLAMINES” (priority 2007, published 2011)
Values belong to the compound of their own block, whether it stands above or below them.

What was measured:
[1] = test system: green peach aphid (Myzus persicae); test: Myzus test (MYZUPE), spray treatment; format: in vivo; settings: 20 g/ha
Procedure: [table] To produce a suitable preparation of active compound, 1 part by weight of active compound is mixed with the stated amounts of solvent and emulsifier, and the concentrate is diluted with emulsifier-containing water to the desired concentration. Disks of Chinese cabbage (Brassica pekinensis) which are infested with all stages of the green peach aphid (Myzus persicae) are sprayed with a preparation of active compound of the desired concentration. After the desired period of time, the effect in % is determined. 100% means that all aphids have been killed; 0% means that none of the aphids have been killed. [table] To produce a suitable preparation of active compound, 1 part by weight of active compound is mixed with the stated amounts of solvent and emulsifier, and the concentrate is diluted with emulsifier-containing water to the desired concentration. Disks of Chinese cabbage (Brassica pekinensis) which are infested with all stages of the green peach aphid (Myzus persicae) are sprayed with a preparation of active compound of the desired concentration. After the desired period of time, the effect in % is determined. 100% means that all aphids have been killed; 0% means that none of the aphids have been killed.

[2] = test system: greenhouse red spider mite (Tetranychus urticae); test: Tetranychus test, OP-resistant (TETRUR), spray treatment; format: in vivo; settings: 100 g/ha
Procedure: To produce a suitable preparation of active compound, 1 part by weight of active compound is mixed with the stated amounts of solvents and emulsifier, and the concentrate is diluted with emulsifier-containing water to the desired concentration.
Discs of bean leaves (Phaseolus vulgaris) which are infested by all stages of the greenhouse red spider mite (Tetranychus urticae) are sprayed with a preparation of active compound of the desired concentration.
After the desired period of time, the effect in % is determined. 100% means that all spider mites have been killed; 0% means that none of the spider mites have been killed.

Structure (SMILES): CC(N=C1OCCN1C(=S)NCC(F)(F)F)c1ccccc1 (stereo not drawn) [Compound 3]
1. MYZUPE spray appl. % 6 d [1]: 100%
2. TETRUR spray appl. % 6 d [2]: 70%

logP (Log P): 3.07
Structure (SMILES): C[C@H](/N=C1\OCCN1C(=S)NCC#N)c1ccccc1 [Compound 94, (2Z)—N-(cyanomethyl)-2-[(1-phenylethyl)imino]-1,3-oxazolidine-3-carbothioamide]

Structure (SMILES): CCC(N=C1OCCN1C(=S)NCc1ccccc1)c1ccccc1 (stereo not drawn) [compound 68]
log P (acidic) (Log P; acidic, Phys. Data cells marked (C)): 4.68 (C)

Structure (SMILES): C[C@H](NC(=O)NCCCl)c1ccccc1 [1-(2-chloroethyl)-3-[(1S)-1-phenylethyl]urea]
logP (Log P): 1.76

Structure (SMILES): COCCNC(=S)N1CCOC1=NC(C)c1ccccc1 (stereo not drawn) [Compound 2]
1. MYZUPE spray appl. % 6 d [1]: 100%
2. TETRUR spray appl. % 6 d [2]: 90%

logP (Log P): 4.08
Structure (SMILES): COCCNC(=S)N1CCO/C1=N\C(C)c1ccccc1Cl (stereo not drawn) [Compound 10, (2Z)-2-{[1-(2-chlorophenyl)ethyl]imino}-N-(2-methoxyethyl)-1,3-oxazolidine-3-carbothioamide]

Structure (SMILES): CC(NC(=O)NCCCl)c1ccccc1Cl (stereo not drawn) [1-(2-chloroethyl)-3-[1-(2-chlorophenyl)ethyl]urea]
logP (Log P): 2.3
